We go through 1 compound from patent US6399833B1, “Process for producing aryl vinyl sulfone solution and use thereof” (Sumitomo Chemical Company, Limited, priority 1998, dated 2002).

Each structure is given as a SMILES string.

Data set [1] is described as follows: Stability of phenyl vinyl sulfone/acetonitrile solution, thermostatic bath at 40° C., analysed by gas chromatography. Particulars: 30% acetonitrile solution, stainless steel chip, nitrogen. The class given is physicochemical. The protocol: About 70 ml of a phenyl vinyl sulfone/acetonitrile solution (phenyl vinyl sulfone concentration, 30%) and a chip of stainless steel (20 mm×25 mm×2 mm) (assuming the storage in a stainless steel vessel) were put in a glass sample tube of 100 ml in volume, which was purged with nitrogen gas and then sealed with a tight stopper, followed by stability tests in a thermostatic bath at 40° C. The concentration of phenyl vinyl sulfone in the phenyl vinyl sulfone/acetonitrile solution was analyzed by gas chromatography.

Data set [2] is described as follows: Stability of phenyl vinyl sulfone solutions in various solvents, thermostatic bath at 40° C., analysed by gas chromatography. It is filed as physicochemical. Particulars: for Retention in DMF solution: N,N-dimethylformamide solution (30%); for Retention in ethanol solution: ethanol solution (10%); for Retention in MIK solution: methyl isobutyl ketone solution (30%); for Retention in MTBE solution: methyl t-butyl ether solution (10%); for Retention in toluene solution: toluene solution (30%). The protocol: About 35 ml of a phenyl vinyl sulfone solution and a chip of stainless steel (20 mm×25 mm×2 mm) (assuming the storage in a stainless steel vessel) were put in a glass sample tube of 50 ml in volume, which was purged with nitrogen gas and then sealed with a tight stopper, followed by stability tests in a thermostatic bath at 40° C. The results of retention when a toluene solution (concentration, 30%), a methyl isobutyl ketone solution (concentration, 30%), and a methyl t-butyl ether solution (concentration, 10%) were used as the phenyl vinyl sulfone solutions are shown in Table 2.
The concentration of phenyl vinyl sulfone in each solution was analyzed by gas chromatography. In the table, MIK refers to methyl isobutyl ketone; and MTBE, methyl t-butyl ether.
Stability tests were carried out in the same manner as described in Reference Example 3, except that an ethanol solution (concentration, 10%) and an N,N-dimethylformamide solution (concentration, 30%) were used as the phenyl vinyl sulfone solutions. In the table, DMF refers to N,N-dimethylformamide.

For data set [3] the following is noted: Aldrich Material Safety Data; cited from earlier work.

Consider `C=CS(=O)(=O)c1ccccc1` [phenyl vinyl sulfone], for which the Retention in data set [1] (0 day) was 100%. The compound also showed a Retention in data set [1] (30 days) of 100%. The compound also registered a Retention in data set [1] (60 days) of 99.9%. In data set [1] (90 days), this compound yielded a Retention of 99.4%. The “Appearance of solution on storage” value in data set [2] (DMF solution (30%), with the lapse of storage days) is reported as “yellow coloring was observed”. Also, in data set [2] (0 day), the “Retention in DMF solution” value stood at 100%, the “Retention in ethanol solution” value worked out at 100%, the “Retention in MIK solution” value is recorded as 100% and the “Retention in MTBE solution” value is recorded as 100%. Besides, the “Retention in toluene solution” value in data set [2] (0 day) is 100%. In data set [2] (15 days), the “Retention in DMF solution” value was 99.0%, the “Retention in ethanol solution” value came to 83.8%, the “Retention in MIK solution” value is recorded as 99.5% and the “Retention in MTBE solution” value is 100%. The “Retention in toluene solution” value in data set [2] (15 days) came to 100%. Also, the Irritation entry in data set [3] is “exhibit irritation”.
